Laboratory results as given in US4338314A, “[1,2]Anellated-7-phenyl-1,4-benzodiazepine and pharmaceutical compositions thereof and use for treatment of ulcers” (Kali-Chemie Pharma GmbH, priority 1978, dated 1982).

Columns and labels:
[1] = Acute 7-day toxicity after a single application per os (LD50); conditions: mouse, in vivo; single oral dose, unfed white NMRI mice, 7 days
Procedure: The acute 7-day toxicity is determined after a single application per os in white NMRI mice which have not been fed. The calculation of the LD50 is carried out by probitananalysis by means of electronic data processing (see L. Cavalli-Sforza, Gustav-Fischer-Verlag, Stuttgart (1964), Grundbegriffe der Biometrie, Chapter 10, pages 153-190).

[2] = test system: central nervous system (hexobarbital sleep time); assay: Central nervous depressant properties (prolonging the hexobarbital sleep time); type: in vivo; conditions: Mus musculus, 0.5 h; oral, mice, 30 minutes before 64 mg/kg hexobarbital; half of animals extend sleep by factor of 4; read-out: Prolonging hexobarbitol sleep time (ED50)
Procedure: 4. Testing of Central Nervous Depressant Properties (Prolonging the Hexobarbital sleep time):
The test substance is administered orally to mice. After 30 minutes, the animals are additionally injected with hexabarbitol in an amount of 64 mg/kg. The time point of the onset of sleeping posture is determined and the duration of sleeping posture is compared with a control group treated exclusively with hexobarbitol. The dose, with which half of the animals extend the time of sleeping posture by a factor of 4 over that of the control group, is defined as ED50. (J. W. Kemp. M. Tannhauser and E. A. Swingard, Arch. Int. Pharmacodyn. 193(1971), pp 34-47).

muscle tone = assay: Testing of musculatropic properties (traction test); type: in vivo; conditions: Mus musculus, 2 h; oral, mice, after 120 minutes; half of animals do not touch wire with hind legs within 5 seconds
Procedure: 3. Testing of Musculatropic Properties:
In a traction test, mice are administered the test substance orally. After 120 minutes the mice are attached at the front paws to a horizontally suspended wire. The ED50 is the dose which causes exactly half of the animals not to touch the wire also with their hind legs within a period of 5 seconds, (W. Theobald et al, Arneim. Forschung 17, (1967), page 561). This test measures the influence of the test substance on the muscle tone of the test subject.

[3] = test system: indomethacine-induced ulcers; assay: Effectiveness against indomethacine-induced ulcers in rats; type: in vivo, rats (male); conditions: Rattus norvegicus, 1 h before 40 mg/kg indomethacine, 24 h, read-out: Ulcer induced by indomethacine, % inhibited; for inhibition in vivo at 100 mg/kg: 100 mg/kg oral; for inhibition in vivo at 200 mg/kg: 200 mg/kg oral
Procedure: 2. Effectiveness Against Indomethacine-Induced Ulcers in Rats Modified Test Procedure According to U. Jahn and R. W. Adrian, Arzneimittel Forschung, (Drug Research) 19, (1969), p. 36.:
The animals of the blank control group receive the corresponding amount by volume of the suspension medium only. One hour after the application of the test compouns, a dosage of 40 mg/kg of indomethacine contained in an amount of 0.5 ml of a suspension per 100 g animal weight are orally applied to each animal for producing ulcers. Twenty-four hours after the application of the indomethacine the animals are sacrificed.

central nervous system = assay: Central nervous / psychopharmacological activity, side effects and toxicity, general statement

Row | SMILES | LD50 at 168 h [1] [mg/kg] | ED50 [2] [mg/kg] | ED50 (muscle tone) [mg/kg] | inhibition in vivo at 150 mg/kg ([3]; 150 mg/kg oral) [%] | inhibition in vivo at 100 mg/kg [3] [%] | inhibition in vivo at 200 mg/kg [3] [%] | inhibition in vivo at 250 mg/kg ([3]; 250 mg/kg oral) [%] | inhibition in vivo at 12 mg/kg ([3]; 12 mg/kg oral, higher doses not tolerable) [%] | psychopharmacological effect (central nervous system; already with small doses) | tolerability of higher doses sufficient to achieve an improved ulcer inhibiting effect (central nervous system; higher doses)
1 | Clc1ccc2c(c1)C(c1ccccc1)=NCC1COCCN21 (stereo not shown) [A] | 2260 | 31.6 | 285 | 61 |  |  |  |  |  | 
2 | Fc1ccc2c(c1)C(c1ccccc1)=NCC1COCCN21 (stereo not shown) [B] | > 1370 | 80.3 | > 296 |  | 77 |  |  |  |  | 
3 | Cc1ccc2c(c1)C(c1ccccc1)=NCC1COCCN21 (stereo not shown) [C] | > 1430 | 139 | > 316 |  |  | 68 |  |  |  | 
4 | Cc1ccc2c(c1)N1CCOCC1CN=C2c1ccccc1 (stereo not shown) [D] | > 1470 | 138 | > 316 |  | 70 |  |  |  |  | 
5 | Clc1ccc2c(c1)C(c1ccccc1Cl)=NCC1COCCN21 (stereo not shown) [E] | > 1470 | 11.8 | > 316 |  | 86 |  |  |  |  | 
6 | COc1ccc2c(c1)N1CCOCC1CN=C2c1ccccc1 (stereo not shown) [F] | > 1430 | 202 | > 308 |  | 42 |  |  |  |  | 
7 | Cc1cc2c(cc1Cl)N1CCOCC1CN=C2c1ccccc1 (stereo not shown) [G] | > 1520 | 119 | > 327 |  |  | 77 |  |  |  | 
8 | Clc1ccc2c(c1)C(c1ccccc1)=NCC1CSCCN21 (stereo not shown) [H] | > 1470 | 153 | 316 |  | 74 |  |  |  |  | 
9 | C=CCN1CCN2c3ccc(Cl)cc3C(c3ccccc3)=NCC2C1 (stereo not shown) [I] | 1090 | 100 | > 316 |  |  | 81 |  |  |  | 
10 | Clc1ccc2c(c1)C(c1ccccc1)=NCC1CN(CCc3ccccc3)CCN21 (stereo not shown) [K] | > 1310 | 110 | > 284 |  |  | 85 |  |  |  | 
11 | Cc1ccc2c(c1)C(c1ccccc1)=NCC1CN(C)CCN21 (stereo not shown) [L] | > 1010 | 164 | > 215 |  |  |  | 70 |  |  | 
12 | CN1C(=O)CN=C(c2ccccc2)c2cc(Cl)ccc21 [S] |  | 1.5 | 4.2 |  |  |  |  | 28 |  | 
13 | CN1C(=O)CN=C(c2ccccc2)c2cc(Cl)ccc21 [Substance S, 7-chloro-1-methyl-5-phenyl-1,3-dihydro-2H-1,4-benzodiazepin-2-one] |  |  |  |  |  |  |  |  | strong | not tolerable
